Test [1] concerns human promyelocyte HL-60 cells. The test can be described thus: Differentiation of HL-60 promyelocytes into monocytes (NBT reduction). The format is cell-based. The following applies: for induction of differentiation of HL-60 cells to monocytes, in words: FIGS. 2, 4, 6, comparison in words; for HL-60 Differentiation ED50: concentration inducing 50% maturation (NBT). From the text:
In the next assay, the cellular activity of the synthesized compounds was established by studying their ability to induce differentiation of human promyelocyte HL-60 cells into monocytes.

Test [2] concerns intestinal calcium transport. The test can be described thus: Intestinal calcium transport (everted sac), chronic doses 7 days i.p., vitamin D-deficient rats. Type of test: in vivo, rat. The following applies: for intestinal calcium transport activity, in words: chronic 7 days, 130 and/or 260 pmol/day. The method, then:
(§1) Male weanling rats were obtained from Sprague Dawley Co. (Indianapolis, Ind.) and fed a 0.47% calcium, 0.3% phosphorus vitamin D-deficient diet for 1 week and then given the same diet containing 0.02% calcium, 0.3% phosphorus for 2 weeks. During the last week they were given the indicated dose of compound by intraperitoneal injection in 0.1 ml 95% propylene glycol and 5% ethanol each day for 7 days. The control animals received only the 0.1 ml of 95% propylene glycol, 5% ethanol. Twenty-four hours after the last dose, the rats were sacrificed and intestinal calcium transport was determined by everted sac technique as previously described and serum calcium determined by atomic absorption spectrometry on a model 3110 Perkin Elmer instrument (Norwalk, Conn.). There were 5 rats per group and the values represent mean±SEM.
as §1, with “With respect to the data in Tables 3 and 4, male” for “Male”, “atormic” for “atomic”

In test [3] the test system is serum calcium (bone calcium mobilization). The test can be described thus: Serum calcium (bone calcium mobilization), chronic doses 7 days i.p., vitamin D-deficient rats. Type of test: in vivo, rat. The note with it: for bone calcium mobilization (serum calcium) activity, in words: chronic 7 days, 130 and/or 260 pmol/day. The method, then: as §1
as §1, with “With respect to the data in Tables 3 and 4, male” for “Male”, “atormic” for “atomic”

Test [4] concerns intestinal calcium transport. In words: Intestinal calcium transport after a single intrajugular dose, vitamin D-deficient rats. The format is in vivo, rat. The following applies: Table 2, single intrajugular dose 650 pmol, 24 h, mean±SEM. As for the experimental part:
(§2) Male Holtzman strain weanling rats were obtained from the Sprague Dawley Co. (Indianapolis, Ind.) and fed the 0.47% calcium, 0.3% phosphorus diet described by Suda et al. (J. Nutr. 100, 1049–1052, 1970) for 1 week and then fed the same diet containing 0.02% calcium and 0.3% phosphorus for 2 additional weeks. At this point, they received a single intrajugular injection of the indicated dose dissolved in 0.1 ml of 95% propylene glycol/5% ethanol. Twenty-four hours later they were sacrificed and intestinal calcium transport and serum calcium were determined as described in Table 1. The dose of the compounds was 650 pmol and there were 5 animals per group. The data are expressed as mean±SEM.

Test [5] deals with serum calcium (bone calcium mobilization). The test can be described thus: Serum calcium (bone calcium mobilization) after a single intrajugular dose, vitamin D-deficient rats. The format is in vivo, rat. The following applies: Table 2, single intrajugular dose 650 pmol, 24 h, mean±SEM. The method, then:
as §2

Test [6] relates to intestinal calcium transport. In words: Support of intestinal calcium transport in vitamin D-deficient rats on a low-calcium diet (3 weeks), 7 daily i.p. doses. Type of test: in vivo, rat. The following applies: 260 pmol daily x 7 i.p.
The subject of test [7] is bone calcium mobilization (serum Ca). The test can be described thus: Bone calcium mobilization (serum Ca) in vitamin D-deficient rats on a low-calcium diet (3 weeks), 7 daily i.p. doses. Type of test: in vivo, rat. The note with it: 260 pmol daily x 7 i.p.
Where [8] appears, read: Table 1, 130 pmol/day/7 days i.p., mean±SEM, 5 rats.
[9] abbreviates: Table 1, 260 pmol/day/7 days i.p., mean±SEM, 5 rats.
[10] abbreviates: listed as α and β isomers of 2-methyl-19-nor-1,25-(OH)2D3.
Where [11] appears, read: listed as 2-Methyl (α and β mixture)-19-Nor-1,25-(OH)2D3.
The mark [12] stands for this setting: listed as 2-Methyl (α and β mixture)-19-Nor-20S-1,25-(OH)2D3.
Where [13] appears, read: Table 4, 260 pmol/day/7 days i.p., mean±SEM.
Where [14] appears, read: Table 5, 260 pmol/day/7 days i.p.

Values joined by “and” are separate entries in the source; they are usually repeats but may differ in a detail not shown here. Equal values may be shown once. Marks after values point to notes of the source that are not given here.

Turning to `CC(CCCC(C)(C)O)C1CCC2C(=CC=C3CC(O)C(C)C(O)C3)CCCC21C` (mixture of isomers) [2-Methyl (α and β) 19-Nor-1,25-(OH)2D3, mixture of 2α and 2β-methyl-19-nor-1α,25-dihydroxyvitamin D3], the “induction of differentiation of HL-60 cells to monocytes, in words” value in test [1] is on record as “activity similar to 1,25-(OH)2D3”. Also, the “Intestinal Calcium Transport (S/M)” value is reported as 5.0 ± 0.3 S/M in test [2] (setting [8]), 5.3 ± 0.6 S/M in test [2] (setting [9]) and 3.6 ± 0.4 S/M in test [4] (setting [11]). Also, the “intestinal calcium transport activity, in words” value in test [2] (setting [10]) is reported as “no intestinal calcium transport activity”. Further, the “Serum Calcium” value in test [3] (setting [8]) stood at 6.1 ± 0.1 mg/100 ml; in test [3] (setting [9]), 6.7 ± 0.4 mg/100 ml; in test [5] (setting [11]), 5.4 ± 0.1 mg/100 ml. The “bone calcium mobilization (serum calcium) activity, in words” value in test [3] (setting [10]) is “strong bone calcium mobilization at both dose levels”.
As for `CC(CCCC(C)(C)O)C1CCC2C(=CC=C3CC(O)C(C)C(O)C3)CCCC21C` (mixture of isomers) [2-Methyl (α and β) 19-Nor-20S-1,25-(OH)2D3] [mixture of 2α and 2β-methyl-19-nor-20S-1α,25-dihydroxyvitamin D3], in test [1] (listed as α and β derivatives of 2-methyl-19-nor-20S-1,25-(OH)2D3), the “induction of differentiation of HL-60 cells to monocytes, in words” value is given as “extremely potent”. Besides, the results for the “Intestinal Calcium Transport (S/M)” value in test [2] (setting [8]), in test [2] (setting [9]) and in test [4] (setting [12]) were 5.0 ± 0.9 S/M, 6.9 ± 0.5 S/M and 6.7 ± 0.6 S/M, respectively. Further, the “intestinal calcium transport activity, in words” value in test [2] is listed as “no significant change in intestinal calcium transport at 130 pmol dose level”. Also, the “Serum Calcium” value stood at 9.6 ± 0.1 mg/100 ml in test [3] (setting [8]); 9.6 mg/100 ml in test [3] (Table 1, 130 pmol/day/7 days i.p., mean±SEM, 5 rats, listed as 2-methyl-(α and β)-19-nor-20S-1,25-(OH)2D3); 12.2 ± 0.3 mg/100 ml in test [3] (setting [9]); 12.2 mg/100 ml in test [3] (Table 1, 260 pmol/day/7 days i.p., mean±SEM, 5 rats, listed as 2-methyl-(α and β)-19-nor-20S-1,25-(OH)2D3); 8.1 ± 0.3 mg/100 ml in test [5] (setting [12]). The “bone calcium mobilization (serum calcium) activity, in words” value in test [3] is “much higher than that of the native hormone”.
Regarding `C=C1/C(=C\C=C2/CCC[C@]3(C)[C@@H]([C@H](C)CCCC(C)(C)O)CC[C@@H]23)C[C@@H](O)C[C@@H]1O` [1α,25-(OH)2D3, 1α,25-dihydroxyvitamin D3, reference compound], the “HL-60 Differentiation ED50” value in test [1] (Table 6) and in test [1] (Table 8) was 4 nM each time. In addition, the “Intestinal Calcium Transport (S/M)” value in test [2] (setting [9]) amounted to 6.2 ± 0.4 S/M; in test [2] (Table 3, 260 pmol/day/7 days i.p., mean±SEM) it was 4.6 ± 0.2 S/M; in test [2] (setting [13]), 5.6 ± 1.3 S/M; in test [2] (setting [14]) it was 6.6 ± 0.5 S/M; in test [4], 5.8 ± 0.3 S/M. The “Serum Calcium” value in test [3] (Table 1, 260 pmol/day/7 days i.p., mean±SEM, 5 rats, listed as 1,25-(OH)2D3) is 7.2 mg/100 ml and 7.2 ± 0.5 mg/100 ml; in test [3] (Table 3, 260 pmol/day/7 days i.p., mean±SEM, listed as 1,25-(OH)2D3), 6.6±0.4 mg/100 ml; in test [3] (setting [13]) it was 6.1 ± 0.5 mg/100 ml; in test [3] (setting [14]), 5.2 ± 0.1 mg/100 ml; in test [5], 5.7 ± 0.2 mg/100 ml. Besides, the “Ca Transport S/M (mean ± SEM)” value is given as 7.2 ± 0.6^c S/M in test [6] (Table 7 panel 1), 5.0 ± 0.4^c S/M in test [6] (Table 7 panel 2), 7.2 ± 0.6^c S/M in test [6] (Table 9 panel 1) and 5.0 ± 0.4^c S/M in test [6] (Table 9 panel 2). Further, the “Serum Ca (mean ± SEM)” value in test [7] (Table 7 panel 1) was 5.6 ± 0.2^c; in test [7] (Table 7 panel 2), 6.3 ± 0.2^c; in test [7] (Table 9 panel 1), 5.6 ± 0.2^c; in test [7] (Table 9 panel 2), 6.3 ± 0.2^c.
